Data set [1] relates to MEK (phosphorylation of MAP kinase (ERK) in murine colon 26 (C26) carcinoma cells). As to the kind of experiment: Cellular inhibition of ERK phosphorylation, pERK ELISA format (C26ELSA). Type of data set: cell-based. As to conditions: Mus musculus, 1 h, one hour treatment. An excerpt:
Otherwise, percent inhibitions at measured concentrations are reported.
(ELISA stands for enzyme-linked immunosorbent assay.)

The test system is the same in data set [2]. As to conditions: read-out: C26CPA1 IC50, one hour treatment. As to the method:
Since ERK1 and ERK2 represent the only known substrates for MEK1 and MEK2, the measurement of inhibition of ERK phosphorylation in cells provides direct read out of cellular MEK inhibition by the compounds of the invention. Detection of phosphorylation of ERK was carried out either by Western blot or ELISA format. […] Supernatants were then subjected to gel electrophoresis and hybridized to a primary antibody recognizing dually phosphorylated ERK1 and ERK2. To evaluate total MAPK levels, blots were subsequently ‘stripped’ and re-probed with a 1:1 mixture of polyclonal antibodies recognizing unphosphorylated ERK1 and ERK2. For pERK ELISA assay, pERK TiterZyme Enzyme immunometric Assay kits were acquired from Assay Designs, Inc (Ann Arbor, Mich.). Briefly, cells were harvested in lysis solution containing 50 mM β-glycerophosphate, 10 mM HEPES, pH7.4, 70 mM NaCl, 2 mM EDTA and 1% SDS and protein lysates were diluted 1:15 with supplied Assay buffer prior to the execution of the assay. The subsequent steps were carried out essentially as recommended by the manufacturer.

By melting point is commonly meant the temperature of the solid-liquid transition. The term pIC50 denotes the IC50 on a negative log10 scale, so that one unit is a factor of ten.

The structures appear in SMILES notation. pIC50: −log10 of the molar value. Structures can show the parent of a compound that is named as a salt. Where two headings read alike, the source gives them in different places.

`CCOC(=O)c1cn2ccnc2cc1Nc1ccc(I)cc1F` [Example 1, 7-(2-Fluoro-4-iodo-phenylamino)-imidazo[1,2-a]pyridine-6-carboxylic acid ethyl ester] showed a melting point of 132 to 134 °C. As to `NC(=O)c1cn2ccnc2cc1Nc1ccc(I)cc1F` [Example 3, 7-(2-Fluoro-4-iodo-phenylamino)-imidazo[1.2-a]pyridine-6-carboxylic acid amide], the negative-log IC50 (pIC50) in data set [1] is 8.72. With `O=C(NCCO)C1=CN2CCN=C2C=C1Nc1ccc(I)cc1F` [Example 4, 7-(2-Fluoro-4-iodo-phenylamino)-2,3-dihydro-imidazo[1.2-a]pyridine-6-carboxylic acid (2-hydroxy-ethyl)-amide; hydroiodide salt], in data set [2], the pIC50 is 6.75. With `CCOC(=O)c1cn2c(C)nnc2cc1Nc1ccc(I)cc1F` [Example 5, 7-(2-Fluoro-4-iodo-phenylamino)-3-methyl-[1,2,4]triazolo[4.3-a]pyridine-6-carboxylic acid ethyl ester], the melting point was in the range of 201 to 204 °C. In the case of `Cc1nnc2cc(Nc3ccc(I)cc3F)c(C(N)=O)cn12` [Example 6, 7-(2-Fluoro-4-iodo-phenylamino)-3-methyl-[1,2,4]triazolo[4,3-a]pyridine-6-carboxylic acid amide], the melting point was 300 to 310 °C (dec.).

Source of the values: patent US20050049276A1, “Imidazopyridines and triazolopyridines” (WARNER-LAMBERT COMPANY, LLC, priority 2003, published 2005).
